Experimental data as given in the kinase profiling compilation of Christmann-Franck et al. (2016).

Tests used:
Experiment in all cases: KINOMEscan competition binding
Settings in all cases: compound 10.0 µM
LATS2 (human) = LATS2 (human) (UniProt Q9NRM7)
ALK (human) = ALK (human) (UniProt Q9UM73)
AXL (human) = AXL (human) (UniProt P30530)
CAMK2D (human) = CAMK2D (human) (UniProt Q13557)
CLK1 (human) = CLK1 (human) (UniProt P49759)
MARK2 (human) = MARK2 (human) (UniProt Q7KZI7)
IKBKE (human) = IKBKE (human) (UniProt Q14164)
[1] = biological target: JAK1 JH2 pseudokinase (human) (UniProt P23458)
SLK (human) = SLK (human) (UniProt Q9H2G2)
CAMKK1 (human) = CAMKK1 (human) (UniProt Q8N5S9)
EPHA3 (human) = EPHA3 (human) (UniProt P29320)
CDK16 (human) = CDK16 (human) (UniProt Q00536)
PRKACB (human) = PRKACB (human) (UniProt P22694)
STK25 (human) = STK25 (human) (UniProt O00506)
STK25 (human), sequence (O00506 whole entry, looked up): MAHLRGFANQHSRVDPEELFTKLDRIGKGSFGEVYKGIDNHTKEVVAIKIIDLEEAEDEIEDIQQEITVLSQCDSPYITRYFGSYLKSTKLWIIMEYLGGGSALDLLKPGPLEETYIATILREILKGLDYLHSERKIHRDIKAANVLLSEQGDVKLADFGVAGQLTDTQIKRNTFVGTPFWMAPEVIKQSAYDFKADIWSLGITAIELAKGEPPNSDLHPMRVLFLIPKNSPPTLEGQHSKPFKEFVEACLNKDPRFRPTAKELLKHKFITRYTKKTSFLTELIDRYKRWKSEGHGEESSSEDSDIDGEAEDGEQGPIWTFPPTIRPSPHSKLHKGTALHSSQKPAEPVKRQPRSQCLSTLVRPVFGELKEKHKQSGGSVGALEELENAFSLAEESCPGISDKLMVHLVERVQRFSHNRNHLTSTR

RPS6KA1 KD1 (human) = RPS6KA1 KD1 (human) (UniProt Q15418)
PRKX (human) = PRKX (human) (UniProt P51817)
PRKX (human), sequence (P51817 whole entry, looked up): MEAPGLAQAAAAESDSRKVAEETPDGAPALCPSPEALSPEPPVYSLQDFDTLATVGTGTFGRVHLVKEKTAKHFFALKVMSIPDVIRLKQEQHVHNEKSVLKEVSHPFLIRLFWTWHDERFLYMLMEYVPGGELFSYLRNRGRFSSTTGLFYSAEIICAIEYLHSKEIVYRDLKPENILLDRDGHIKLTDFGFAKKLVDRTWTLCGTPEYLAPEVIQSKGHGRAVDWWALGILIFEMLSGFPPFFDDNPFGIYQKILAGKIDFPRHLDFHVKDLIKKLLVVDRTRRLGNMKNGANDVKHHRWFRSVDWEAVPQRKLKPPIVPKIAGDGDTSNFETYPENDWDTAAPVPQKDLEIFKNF

SRPK2 (human) = SRPK2 (human) (UniProt P78362)
MAP4K2 (human) = MAP4K2 (human) (UniProt Q12851)
STK38L (human) = STK38L (human) (UniProt Q9Y2H1)
ROS1 (human) = ROS1 (human) (UniProt P08922)
CLK3 (human) = CLK3 (human) (UniProt P49761)
MARK1 (human) = MARK1 (human) (UniProt Q9P0L2)
GSK3A (human) = GSK3A (human) (UniProt P49840)
NEK6 (human) = NEK6 (human) (UniProt Q9HC98)
CDC42BPA (human) = CDC42BPA (human) (UniProt Q5VT25)
STK16 (human) = STK16 (human) (UniProt O75716)
MST1R (human) = MST1R (human) (UniProt Q04912)
ZAP70 (human) = ZAP70 (human) (UniProt P43403)
MYO3A (human) = MYO3A (human) (UniProt Q8NEV4)
MYO3A (human), sequence (Q8NEV4 whole entry, looked up): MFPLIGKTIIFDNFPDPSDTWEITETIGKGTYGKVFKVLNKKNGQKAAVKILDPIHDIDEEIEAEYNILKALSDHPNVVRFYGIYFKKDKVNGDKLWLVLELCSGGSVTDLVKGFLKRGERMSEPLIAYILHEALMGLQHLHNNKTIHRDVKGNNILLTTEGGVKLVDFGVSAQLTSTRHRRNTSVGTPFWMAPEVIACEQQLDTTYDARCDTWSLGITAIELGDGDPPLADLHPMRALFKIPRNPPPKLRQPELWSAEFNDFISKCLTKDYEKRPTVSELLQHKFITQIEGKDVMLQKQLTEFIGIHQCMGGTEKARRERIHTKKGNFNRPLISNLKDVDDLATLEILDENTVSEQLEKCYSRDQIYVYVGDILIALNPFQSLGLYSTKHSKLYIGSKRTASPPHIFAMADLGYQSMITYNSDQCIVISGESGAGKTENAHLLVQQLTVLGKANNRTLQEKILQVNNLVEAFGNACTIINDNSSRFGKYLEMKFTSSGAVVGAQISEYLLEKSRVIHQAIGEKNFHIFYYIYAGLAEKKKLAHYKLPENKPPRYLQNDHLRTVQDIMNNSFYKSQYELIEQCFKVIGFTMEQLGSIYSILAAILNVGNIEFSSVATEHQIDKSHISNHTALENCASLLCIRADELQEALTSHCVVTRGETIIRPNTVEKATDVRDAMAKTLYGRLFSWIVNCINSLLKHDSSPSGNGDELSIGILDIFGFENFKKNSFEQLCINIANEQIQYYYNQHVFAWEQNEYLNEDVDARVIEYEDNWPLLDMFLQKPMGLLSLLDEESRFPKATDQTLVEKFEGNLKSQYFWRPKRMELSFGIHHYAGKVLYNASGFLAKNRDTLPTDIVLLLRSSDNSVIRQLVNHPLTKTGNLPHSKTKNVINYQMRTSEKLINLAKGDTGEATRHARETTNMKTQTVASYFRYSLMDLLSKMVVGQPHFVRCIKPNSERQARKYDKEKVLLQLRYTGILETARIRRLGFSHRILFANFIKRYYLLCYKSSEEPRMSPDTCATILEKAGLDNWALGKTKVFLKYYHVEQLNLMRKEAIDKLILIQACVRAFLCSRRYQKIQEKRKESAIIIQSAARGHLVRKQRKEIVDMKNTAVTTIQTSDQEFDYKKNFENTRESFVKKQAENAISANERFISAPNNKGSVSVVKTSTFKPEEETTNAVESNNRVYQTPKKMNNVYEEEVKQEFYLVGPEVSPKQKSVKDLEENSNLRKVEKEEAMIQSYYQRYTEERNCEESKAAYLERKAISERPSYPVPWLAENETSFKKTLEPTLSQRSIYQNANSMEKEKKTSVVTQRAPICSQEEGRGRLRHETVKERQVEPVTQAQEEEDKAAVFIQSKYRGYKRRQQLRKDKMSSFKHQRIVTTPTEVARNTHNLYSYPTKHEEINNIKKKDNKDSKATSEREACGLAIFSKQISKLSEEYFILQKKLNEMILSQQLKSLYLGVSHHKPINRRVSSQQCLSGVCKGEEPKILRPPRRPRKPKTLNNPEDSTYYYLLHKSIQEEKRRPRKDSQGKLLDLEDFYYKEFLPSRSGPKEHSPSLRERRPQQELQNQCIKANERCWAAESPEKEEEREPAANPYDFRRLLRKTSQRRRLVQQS

CSNK1A1L (human) = CSNK1A1L (human) (UniProt Q8N752)
CDK9 (human) = CDK9 (human) (UniProt P50750)
MAPK3 (human) = MAPK3 (human) (UniProt P27361)
PRKAA1 (human) = PRKAA1 (human) (UniProt Q13131)
PRKAA1 (human), sequence (Q13131 whole entry, looked up): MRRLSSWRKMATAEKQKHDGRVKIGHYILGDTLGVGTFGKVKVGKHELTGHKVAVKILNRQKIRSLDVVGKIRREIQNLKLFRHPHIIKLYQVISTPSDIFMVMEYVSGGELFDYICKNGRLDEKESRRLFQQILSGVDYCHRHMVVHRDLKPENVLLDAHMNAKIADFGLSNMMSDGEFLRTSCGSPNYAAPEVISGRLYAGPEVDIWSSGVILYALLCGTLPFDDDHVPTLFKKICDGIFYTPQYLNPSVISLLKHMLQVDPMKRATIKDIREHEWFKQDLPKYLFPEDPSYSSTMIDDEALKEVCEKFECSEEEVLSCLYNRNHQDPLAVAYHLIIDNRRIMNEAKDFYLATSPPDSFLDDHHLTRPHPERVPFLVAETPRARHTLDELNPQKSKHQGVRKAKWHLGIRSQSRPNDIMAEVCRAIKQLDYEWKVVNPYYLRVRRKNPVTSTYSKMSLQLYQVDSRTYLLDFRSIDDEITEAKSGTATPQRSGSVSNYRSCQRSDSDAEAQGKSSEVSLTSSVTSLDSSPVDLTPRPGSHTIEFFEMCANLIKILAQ

INSRR (human) = INSRR (human) (UniProt P14616)
INSRR (human), sequence (P14616 whole entry, looked up): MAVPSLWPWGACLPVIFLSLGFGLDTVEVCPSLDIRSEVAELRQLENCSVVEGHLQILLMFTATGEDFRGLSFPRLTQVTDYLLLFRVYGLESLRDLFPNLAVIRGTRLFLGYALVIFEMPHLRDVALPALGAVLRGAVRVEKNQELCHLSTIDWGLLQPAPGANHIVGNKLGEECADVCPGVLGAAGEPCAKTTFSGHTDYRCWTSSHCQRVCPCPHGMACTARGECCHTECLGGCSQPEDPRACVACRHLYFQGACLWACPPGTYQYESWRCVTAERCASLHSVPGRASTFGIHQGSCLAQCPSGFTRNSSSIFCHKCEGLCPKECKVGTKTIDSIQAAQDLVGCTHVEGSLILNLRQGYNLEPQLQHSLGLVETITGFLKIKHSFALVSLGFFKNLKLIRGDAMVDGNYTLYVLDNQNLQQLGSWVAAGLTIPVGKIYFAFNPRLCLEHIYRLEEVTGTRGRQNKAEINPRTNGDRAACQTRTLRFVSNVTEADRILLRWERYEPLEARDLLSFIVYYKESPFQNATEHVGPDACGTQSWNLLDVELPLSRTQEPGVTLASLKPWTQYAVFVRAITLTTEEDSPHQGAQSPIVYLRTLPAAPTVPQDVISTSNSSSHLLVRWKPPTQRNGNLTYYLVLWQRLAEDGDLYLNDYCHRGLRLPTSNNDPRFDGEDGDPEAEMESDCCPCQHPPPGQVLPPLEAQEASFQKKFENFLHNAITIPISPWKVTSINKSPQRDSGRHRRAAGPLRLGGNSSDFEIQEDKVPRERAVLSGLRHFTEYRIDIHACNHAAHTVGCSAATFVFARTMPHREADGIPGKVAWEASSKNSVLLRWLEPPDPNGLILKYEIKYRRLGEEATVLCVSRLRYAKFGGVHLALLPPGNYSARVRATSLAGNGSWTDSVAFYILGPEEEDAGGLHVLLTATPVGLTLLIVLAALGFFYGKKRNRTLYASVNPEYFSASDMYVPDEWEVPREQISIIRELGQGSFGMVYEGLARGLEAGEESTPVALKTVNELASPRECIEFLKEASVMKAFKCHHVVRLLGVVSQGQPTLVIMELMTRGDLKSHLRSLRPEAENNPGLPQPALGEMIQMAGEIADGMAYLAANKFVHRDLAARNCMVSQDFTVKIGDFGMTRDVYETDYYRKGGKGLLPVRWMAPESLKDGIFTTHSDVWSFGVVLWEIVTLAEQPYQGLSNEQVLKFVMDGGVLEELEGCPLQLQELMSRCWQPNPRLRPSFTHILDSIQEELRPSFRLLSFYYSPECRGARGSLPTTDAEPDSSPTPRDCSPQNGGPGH

[2] = biological target: JAK3 JH1 catalytic (human) (UniProt P52333)
MARK4 (human) = MARK4 (human) (UniProt Q96L34)
NEK9 (human) = NEK9 (human) (UniProt Q8TD19)
TGFBR2 (human) = TGFBR2 (human) (UniProt P37173)
SYK (human) = SYK (human) (UniProt P43405)
SIK2 (human) = SIK2 (human) (UniProt Q9H0K1)

MARK2 (human), sequence (Q7KZI7 whole entry, looked up): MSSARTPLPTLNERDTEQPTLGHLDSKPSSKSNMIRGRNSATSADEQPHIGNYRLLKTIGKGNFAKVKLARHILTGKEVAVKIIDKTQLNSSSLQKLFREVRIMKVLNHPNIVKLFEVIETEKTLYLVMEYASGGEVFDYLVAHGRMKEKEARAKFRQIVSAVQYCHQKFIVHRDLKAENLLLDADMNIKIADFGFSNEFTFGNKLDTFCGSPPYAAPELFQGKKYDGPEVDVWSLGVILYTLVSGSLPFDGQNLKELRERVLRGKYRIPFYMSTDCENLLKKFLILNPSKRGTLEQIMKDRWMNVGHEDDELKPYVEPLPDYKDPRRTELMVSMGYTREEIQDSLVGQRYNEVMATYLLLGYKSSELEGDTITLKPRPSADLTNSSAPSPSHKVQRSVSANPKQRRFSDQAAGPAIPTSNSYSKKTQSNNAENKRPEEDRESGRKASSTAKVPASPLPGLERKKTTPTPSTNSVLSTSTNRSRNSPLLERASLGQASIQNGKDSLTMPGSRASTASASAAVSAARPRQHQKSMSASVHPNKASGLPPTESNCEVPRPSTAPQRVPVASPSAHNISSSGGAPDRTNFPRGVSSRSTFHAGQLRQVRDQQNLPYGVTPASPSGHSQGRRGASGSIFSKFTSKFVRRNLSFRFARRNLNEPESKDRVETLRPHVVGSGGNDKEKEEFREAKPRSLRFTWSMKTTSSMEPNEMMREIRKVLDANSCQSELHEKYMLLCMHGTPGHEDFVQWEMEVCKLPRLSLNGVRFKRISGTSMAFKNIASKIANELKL

## O=C(NOC[C@H](O)CO)c1ccc(F)c(F)c1Nc1ccc(I)cc1F
LATS2 (human)
  kinase still bound, per cent of control: 74%
ALK (human)
  kinase still bound, per cent of control: 100%
AXL (human)
  kinase still bound, per cent of control: 83%
CAMK2D (human)
  kinase still bound, per cent of control: 100%
CLK1 (human)
  kinase still bound, per cent of control: 95%
MARK2 (human)
  kinase still bound, per cent of control: 100%
IKBKE (human)
  kinase still bound, per cent of control: 100%
[1]
  kinase still bound, per cent of control: 100%
SLK (human)
  kinase still bound, per cent of control: 93%
CAMKK1 (human)
  kinase still bound, per cent of control: 100%
EPHA3 (human)
  kinase still bound, per cent of control: 100%
CDK16 (human)
  kinase still bound, per cent of control: 100%
PRKACB (human)
  kinase still bound, per cent of control: 98%
STK25 (human)
  kinase still bound, per cent of control: 91%
RPS6KA1 KD1 (human)
  kinase still bound, per cent of control: 100%
PRKX (human)
  kinase still bound, per cent of control: 100%
SRPK2 (human)
  kinase still bound, per cent of control: 100%
MAP4K2 (human)
  kinase still bound, per cent of control: 100%
STK38L (human)
  kinase still bound, per cent of control: 100%
ROS1 (human)
  kinase still bound, per cent of control: 92%
CLK3 (human)
  kinase still bound, per cent of control: 100%
MARK1 (human)
  kinase still bound, per cent of control: 100%
GSK3A (human)
  kinase still bound, per cent of control: 90%
NEK6 (human)
  kinase still bound, per cent of control: 100%
CDC42BPA (human)
  kinase still bound, per cent of control: 100%
STK16 (human)
  kinase still bound, per cent of control: 99%
MST1R (human)
  kinase still bound, per cent of control: 78%
ZAP70 (human)
  kinase still bound, per cent of control: 89%
MYO3A (human)
  kinase still bound, per cent of control: 47%
CSNK1A1L (human)
  kinase still bound, per cent of control: 80%
CDK9 (human)
  kinase still bound, per cent of control: 76%
MAPK3 (human)
  kinase still bound, per cent of control: 86%
PRKAA1 (human)
  kinase still bound, per cent of control: 100%
INSRR (human)
  kinase still bound, per cent of control: 81%
[2]
  kinase still bound, per cent of control: 100%
MARK4 (human)
  kinase still bound, per cent of control: 100%
NEK9 (human)
  kinase still bound, per cent of control: 82%
TGFBR2 (human)
  kinase still bound, per cent of control: 100%
SYK (human)
  kinase still bound, per cent of control: 100%
SIK2 (human)
  kinase still bound, per cent of control: 92%

## O=C(NC1CC1)c1cccc(-c2ccc3c(NC(=O)C4CC4)n[nH]c3c2)c1
LATS2 (human)
  kinase still bound, per cent of control: 85%
ALK (human)
  kinase still bound, per cent of control: 100%
AXL (human)
  kinase still bound, per cent of control: 54%
CAMK2D (human)
  kinase still bound, per cent of control: 84%
CLK1 (human)
  kinase still bound, per cent of control: 77%
MARK2 (human)
  kinase still bound, per cent of control: 45%
IKBKE (human)
  kinase still bound, per cent of control: 100%
[1]
  kinase still bound, per cent of control: 84%
SLK (human)
  kinase still bound, per cent of control: 100%
CAMKK1 (human)
  kinase still bound, per cent of control: 37%
EPHA3 (human)
  kinase still bound, per cent of control: 64%
CDK16 (human)
  kinase still bound, per cent of control: 5%
PRKACB (human)
  kinase still bound, per cent of control: 100%
STK25 (human)
  kinase still bound, per cent of control: 76%
RPS6KA1 KD1 (human)
  kinase still bound, per cent of control: 81%
PRKX (human)
  kinase still bound, per cent of control: 100%
SRPK2 (human)
  kinase still bound, per cent of control: 58%
MAP4K2 (human)
  kinase still bound, per cent of control: 99%
STK38L (human)
  kinase still bound, per cent of control: 96%
ROS1 (human)
  kinase still bound, per cent of control: 100%
CLK3 (human)
  kinase still bound, per cent of control: 80%
MARK1 (human)
  kinase still bound, per cent of control: 96%
GSK3A (human)
  kinase still bound, per cent of control: 84%
NEK6 (human)
  kinase still bound, per cent of control: 90%
CDC42BPA (human)
  kinase still bound, per cent of control: 87%
STK16 (human)
  kinase still bound, per cent of control: 3%
MST1R (human)
  kinase still bound, per cent of control: 90%
ZAP70 (human)
  kinase still bound, per cent of control: 90%
MYO3A (human)
  kinase still bound, per cent of control: 72%
CSNK1A1L (human)
  kinase still bound, per cent of control: 100%
CDK9 (human)
  kinase still bound, per cent of control: 93%
MAPK3 (human)
  kinase still bound, per cent of control: 95%
PRKAA1 (human)
  kinase still bound, per cent of control: 60%
INSRR (human)
  kinase still bound, per cent of control: 95%
[2]
  kinase still bound, per cent of control: 27%
MARK4 (human)
  kinase still bound, per cent of control: 96%
NEK9 (human)
  kinase still bound, per cent of control: 100%
TGFBR2 (human)
  kinase still bound, per cent of control: 100%
SYK (human)
  kinase still bound, per cent of control: 100%
SIK2 (human)
  kinase still bound, per cent of control: 91%
